Test results from article PMC4552634, “A New Set of Chemical Starting Points with Plasmodium falciparum Transmission-Blocking Potential for Antimalarial Drug Discovery” (PLoS ONE, 2015).
Like-named read-outs stand apart in the source and are kept apart here.

Experiments:
[1] = test system: luciferase reaction (BacTiter-Glo); assay: Interference assay (inhibition of the BacTiter-Glo luciferase reaction); type: biochemical; design: concentration or dose not given beside the values; settings: ATP interference assay
Procedure: To discard possible false-positive results, we performed an interference assay in parallel. […] […]. The ATP solution was made by dissolving ATP powder (ATP standard from the ATPlite 1 step assay kit, reference 6016731, Perkin Elmer) in culture medium. The positive control used was the Luciferase Inhibitor I Calbiochem (Merck, 119113) at 100 μM.

[2] = test system: P. falciparum asexual stages; settings: asexual stages; TCAMS data; read-out: IC50 asexual; cited from earlier work
[3] = test system: P. falciparum stage V gametocytes; assay: Gametocytocidal ATP bioluminescence assay (single point 5 μM and 1 μM, dose-response); type: cell-based, Plasmodium falciparum; settings: for Ratio IC50 HepG2/IC50 P. falciparum: IC50 HepG2 divided by IC50 P. falciparum gametocytes
Procedure: Purified stage IV-V gametocytes were obtained as previously described [10]. Single point ATP bioluminescence assay and dose–response of positive hits was determined in accordance with the previously published protocol [10].

HepG2 cells = assay: Cytotoxicity in HepG2 cells (intracellular ATP, ATPlite, 48 h); type: cell-based, human; settings: HepG2 cells; IC50 per ratio column head; unit inferred
[4] = P. falciparum gametocytes, average, read-out: IC50 Pf Gametocytes average, IC50 (µM) average
[5] = sexual stages (gametocytes), dose-response, read-out: IC50 sexual

Row | SMILES | % Control luminiscence [1] [%] | IC50 [2] [µM] | Ratio IC50 HepG2/IC50 P. falciparum [3] | IC50 [3, 4] [µM] | IC50 (HepG2 cells) [µM] | IC50 [3, 5] [µM]
1 | CCN(CC)CCCn1c(N)c(-c2nc3ccccc3[nH]2)c2nc(C#N)c(C#N)nc21 [TCMDC-123680] | 100 | 0.267 | 62 | 0.14 | 8.7 | –
2 | CN(C)CCCn1c(N)c(-c2nc3ccccc3[nH]2)c2nc(C#N)c(C#N)nc21 [TCMDC-123729] | 100 | 0.591 | 35 | 0.2 | 6.93 | –
3 | c1ccc(CSC2=NNC(c3ccccn3)S2)cc1 (stereo not drawn) [TCMDC-123769] | 100 | 1.48 | >3 | 7.98 | > 25 | 7.98
4 | N=c1n(Cc2ccc(Cl)cc2)c2ccccc2n1CC(O)c1ccc(Cl)c(Cl)c1 (stereo not drawn) [TCMDC-123813] | 99 | 0.677 | 18 | 0.36 | 6.5 | 0.357
5 | COc1ccc(C[C@H](N)C(=O)N[C@H]2[C@@H](O)[C@H](n3cnc4c(N(C)C)ncnc43)O[C@@H]2CO)cc1 [TCMDC-123927] | 100 | 0.299 | 4 | 0.65 | 2.69 | 0.647
6 | N=c1n(CCN2CCCCC2)c2ccccc2n1CC(O)c1ccc(Cl)c(Cl)c1 (stereo not drawn) [TCMDC-124064] | 100 | 0.32 | 1.59 | 3.27 | 5.2 | 3.27
7 | Cc1ccc(-n2nc(-c3ccccc3)c3cc(C(=O)NCCN)sc32)cc1 [TCMDC-124776] | 99 | 1.36 | 7 | 1.11 | 7.83 | –
8 | COc1ccc(OC)c(-c2cccc(-c3cccc(NC(=O)c4ccc([N+](=O)[O-])o4)c3)n2)c1 [TCMDC-124799] | 100 | 0.371 | 8 | 0.78 | 6.15 | –
9 | COc1ccccc1-c1cccc(-c2cccc(NC(=O)c3ccc([N+](=O)[O-])o3)c2)n1 [TCMDC-124800] | 100 | 0.603 | 7 | 1.66 | 11.5 | 1.66
10 | O=C(Nc1cccc(-c2cccc(-c3ccc(F)cc3)n2)c1)c1ccc([N+](=O)[O-])o1 [TCMDC-124807] | 100 | 0.361 | 4.55 | 1.53 | 6.94 | 1.53
11 | CCc1[nH]nc(C(=O)NC2CCN(CC3(c4ccc(OC)cc4)CCCCC3)CC2)c1C [TCMDC-124840] | 100 | 0.892 | – | > 10 | > 25 | –
12 | CS(=O)(=O)c1cccc2sc(N3CCN(C(=O)c4ccc([N+](=O)[O-])o4)CC3)nc12 [TCMDC-124930] | 100 | 1.25 | <1.9 | > 10 | 18.8 | –
13 | Cc1nn(CC(C)C)c2sc(C(=O)N3CCN(S(=O)(=O)c4ccc(C#N)cc4)CC3)cc12 [TCMDC-125045] | 92 | 0.739 | >12 | 2.09 | > 25 | 2.09
14 | Cc1ccccc1OCC(O)CNC1CCC(NCC(O)COc2ccccc2C)CC1 (stereo not drawn) [TCMDC-125142] | 99 | 1.19 | 26 | 0.14 | 3.78 | 0.144
15 | O=C(Nc1ccc2c(c1)CCCN2S(=O)(=O)c1cccs1)c1cc([N+](=O)[O-])ccc1Cl [TCMDC-125153] | 100 | 0.845 | >9 | 2.66 | > 25 | 2.66
16 | Cc1cc(NCCCCCCNc2cc(C)nc3c(C)cccc23)c2cccc(C)c2n1 [TCMDC-125702] | 100 | 0.406 | >7.5 | 3.32 | > 25 | 3.31
17 | CN(C)c1ccc2c(c1)Sc1cc(N(C)C)ccc1N2C(=O)CCCC(=O)O [TCMDC-125778] | 100 | 0.802 | – | > 5 | > 25 | –
